In PubChem BioAssay AID2305 (GlaxoSmithKline (GSK), 2010):

Tested on: P. falciparum 3D7 growth, pLDH absorbance
Assay: blood-stage malaria parasite growth potency – strain 3D7, dose response (AID 2305)

| SMILES | IC50 |
| --- | --- |
| COc1cc(Cc2cnc(N)nc2N)cc(OC)c1OCCCCCN1C(=O)c2ccccc2C1=O | 620 nM |
| c1ccc(CN2CCC(NCc3ccccc3-c3cccc(CNCc4ccc5c(c4)OCO5)c3)CC2)cc1 | 570 nM |
| Cc1cccc(C(=O)NC(NC(=S)Nc2cc(Cl)ccc2Cl)C(Cl)(Cl)Cl)c1 (stereo unspecified) | 1270 nM |
| O=C(/C=C/c1ccc(F)cc1)NC1CCC(CCN2CCc3ccccc3CC2)CC1 (stereo unspecified) | 1400 nM |
| O=C(/C=C/C=C/c1ccc(Cl)c(Cl)c1)NCCCCCN1CCCC2CCCCC21 (stereo unspecified) | 950 nM |
| CN(C)C[C@H](O)[C@@H](c1ccccc1)c1ccc(Cl)cc1 | 50 nM |
| CN(C)S(=O)(=O)n1ncc2c3c(N)nc(N)nc3ccc21 | 180 nM |
| c1cc(CNC2Cc3ccc(-c4cccs4)cc3C2)cc(-n2ccnc2)c1 (stereo unspecified) | 590 nM |
| Cn1c(NCc2cc(F)cc3c2OCOC3)nc2cc(Nc3ccnc(Nc4cccc(CS(C)(=O)=O)c4)n3)ccc21 | 150 nM |
| CCCCCCn1c(Sc2ccc(C#N)c([N+](=O)[O-])c2)nnc1-c1cc(OC)cc(OC)c1 | 770 nM |
| O=C(NCC1CC1)C1CCN(C(c2ccccc2)c2cc(F)cc(F)c2)CC1 (stereo unspecified) | 380 nM |
| O=C(NC1CCN(Cc2ccc3c(c2)OCCO3)CC1)c1ccc(-c2cccc(Cl)c2)s1 | 1910 nM |
| NC(=O)c1cccc(C(=O)Nc2cccc(-c3cccc(-c4nc5ccc(C(F)(F)F)cc5[nH]4)c3)c2)c1 | 130 nM |
| Cc1cc(N[C@@H](CC(C)C)C(=O)NCCOc2ccccc2)nc(NCCc2ccc(F)cc2)n1 | 1290 nM |
| COC(=O)c1cccc(OCCNC2CCN(C[C@H](O)c3ccnc4ccc(OC)cc34)CC2)c1 | 340 nM |
| Cn1cccc1C(=O)Nc1cccc(-c2nn3ccccc3c2-c2ccnc(Nc3ccc4c(c3)OCCO4)n2)c1 | 1350 nM |
| CCCCCC(C)C(C)c1cc(O)c2c(c1)OC(C)(C)CC2(O)c1ccnn1C (stereo unspecified) | 960 nM |
| CN1CCC(N2CCN(Cc3cccc(-c4cccc(-c5nc6ccccc6[nH]5)c4)c3)CC2)CC1 | 190 nM |
| COc1ccc2ncc(F)c(CCN3CCC(NCc4cc5c(cn4)OCCS5)CC3)c2c1 | 780 nM |
| CN(C)CCNC(=O)NC1CN(c2ncnc3cc(-c4ccccc4)sc23)C1 | 580 nM |
| CCOc1ccc2c(c1)N(C(=O)C=Cc1ccccc1)C(C)(C)c1ssc(=S)c1-2 | 1150 nM |
| O=C(Nc1cccc(C(F)(F)F)c1)c1ccc(S(=O)(=O)NCC2CCCN(CC3CCCCC3)C2)cc1 (stereo unspecified) | 900 nM |
| CCN(CCCN1CCCCC1)c1cc(C)nc(Nc2ccc(Cl)cc2)n1 | 380 nM |
| O=C(Nc1ccc(-c2ccccc2)cc1)Nc1cccc(Cn2ncc(N3CCCNCC3)c(Cl)c2=O)c1 | 220 nM |

| SMILES | IC50 |
| --- | --- |
| O=C(NCCCCN1CCC(c2cccc3ccccc23)CC1)c1ccc(NC(=O)c2ccc(Cl)cc2)cc1 | 780 nM |
| CS(=O)(=O)NCCCNCc1ccc(-c2ccc(-c3nc4ccc(F)cc4[nH]3)s2)cc1 | 810 nM |
| O=C(Nc1ccc(-c2nc3ccccc3[nH]2)cc1)c1ccc(Cl)s1 | 590 nM |
| COCCNCc1ccc(-c2cccc(CN(C(=O)NCCc3ccccc3)C3CCN(Cc4ccccc4)CC3)c2)cc1 | 920 nM |
| COc1ccc(OC)c(Cc2cnc3nc(N)[nH]c(=O)c3c2C)c1 | 360 nM |
| CN1CCCN(Cc2ccc(-c3ccc(NS(=O)(=O)c4cccc5cccnc45)cc3)cc2)CC1 | 690 nM |
| CC(C)c1nc(N2CCN(C(=S)NCc3ccccc3)CC2)c(C#N)c2c1COC(C)(C)C2 | 140 nM |
| CCNC(=O)N1CCc2ccc(Oc3nc(NCc4ccccc4OC)ncc3C)cc2CC1 | 1070 nM |
| c1ccc2c(NCCCCCCCCCNc3c4ccccc4nc4ccccc34)c3ccccc3nc2c1 | 300 nM |
| COc1ccc(Nc2ncc3c(-c4cccc(NC(=O)Cc5ccc(F)cc5)c4)c[nH]c3n2)cc1OC | 590 nM |
| Fc1ccc2nc(-c3cccc(-c4ccc(CNCc5cnn(-c6ccccc6)n5)cc4)c3)[nH]c2c1 | 920 nM |
| COCCN(C)c1ccc(C(=O)Nc2ccccc2)cc1NS(=O)(=O)Cc1ccccc1 | 570 nM |
| COc1cc(C(=O)N2N=C(c3c(-c4ccccc4)c4cc(Br)ccc4[nH]c3=O)CC2c2cccc([N+](=O)[O-])c2)cc(OC)c1OC (stereo unspecified) | 940 nM |
| Cc1[nH]c(C)c(-c2ccc(-c3cccc(OC(F)(F)F)c3)nc2)c(=O)c1Cl | 70 nM |
| CCOc1cc(C(=O)NC2CC(C)(C)NC(C)(C)C2)ccc1-c1cc2cc(Cl)c(Cl)cc2[nH]1 | 770 nM |
| O=c1[nH]ccc2nc(N[C@@H]3CCCNC3)nc(Nc3ccc(S(=O)(=O)N4CCOCC4)cc3)c12 | 740 nM |
| COc1ccc2nccc(NN=CC=Cc3ccccc3)c2c1 | 740 nM |
| COc1ccc2c(NN=Cc3cccc(C)n3)ccnc2c1 | 760 nM |
| C=CCn1c(=N)n(CC(O)c2ccc(Cl)c(Cl)c2)c2ccccc21 (stereo unspecified) | 340 nM |
| C=CCN1C(=O)C(C(C)=O)=C(O)C1c1ccccc1 (stereo unspecified) | 50 nM |
| Cc1c(S(=O)(=O)Nc2ccc3nccc(N4C[C@@H](C)N[C@@H](C)C4)c3c2)sc2ccc(Cl)cc12 | 1020 nM |
| CN1CCc2cc(I)c(O)cc2C1Cc1ccccc1Cl (stereo unspecified) | 790 nM |
| CN1CCC(COc2ccc(CN3CCC(NC(=O)c4cccc(Cl)c4)CC3)cc2)CC1 | 890 nM |
| COc1ccc(CN2C(=S)N(Cc3ccccc3)C(=O)C2CC(=O)Nc2ccccc2)cc1OC (stereo unspecified) | 840 nM |

| SMILES | IC50 |
| --- | --- |
| O=C(Nc1cccc(CN2CCN(Cc3cccc(O)c3)CC2)c1)c1cc2ccccc2s1 | 1120 nM |
| Cn1c(NC2CCN(CC3CCN(C(=O)/C=C/c4ccc(Cl)c(Cl)c4)CC3)CC2)nc2ccccc21 | 150 nM |
| CCCN(CCC)CCOc1ccc(C(O)(C#CC(O)(c2ccc(OCCN(CCC)CCC)cc2)c2cccc(Cl)c2)c2cccc(Cl)c2)cc1 (stereo unspecified) | 790 nM |
| Cc1cc(N2Cc3ccccc3C2)nc(Nc2cccc(C#N)c2)n1 | 170 nM |
| O=C1CCCN1CCCNCc1cccc(-c2cccc(-c3nc4ccc(F)cc4[nH]3)c2)c1 | 600 nM |
| COc1ccc2ncc(F)c(CCN3CC[C@@H](CNCc4nc5c(cc4C)SCC(=O)N5)C3)c2n1 | 1150 nM |
| CCCC1CCNC(C(O)c2ccnc3ccc(OC)cc23)C1 (stereo unspecified) | 430 nM |
| CN(C(=O)/C=C/c1cc(C(F)(F)F)ccc1F)C1CCN(CCCCCNC(=O)/C=C/c2ccc(Cl)c(Cl)c2)C1 (stereo unspecified) | 1090 nM |
| O=C(/C=C/c1ccc(Cl)c(Cl)c1)NCCCCCN1CCCN(C(=S)Nc2ccc(Cl)c(Cl)c2)CC1 | 870 nM |
| CC(C)(CNCc1ccc(F)c(F)c1)c1nc(-c2ccc(Cl)c(O)c2)c(-c2ccncc2)[nH]1 | 660 nM |
| CN1CCN(c2cc(NC(=O)Nc3cccc(Cl)c3Cl)ccc2Cl)CC1 | 730 nM |
| CCN(CC)CCN(Cc1ccc(-c2ccc(C(F)(F)F)cc2)cc1)C(=O)Cn1c(CCc2ccc(F)c(F)c2)cc(=O)c2ccccc21 | 890 nM |
| COc1ccc(-c2c3c(=O)n(C)c(=O)n(C)c3c3nnc4ccccc4n23)cc1 | 990 nM |
| c1ccc(C(c2ccccc2)N2CCN(C(c3cccnc3)c3nnnn3C3CCCC3)CC2)cc1 (stereo unspecified) | 1080 nM |
| Cc1cccc2[nH]c(-c3cccc(-c4cccc(NC(=O)c5cnccc5C(F)(F)F)c4)c3)nc12 | 660 nM |
| COc1ccc(C2(CNCC(O)c3cccc([N+](=O)[O-])c3)CCCCC2)cc1OC (stereo unspecified) | 960 nM |
| COc1cc(Cc2cnc(N)nc2N)cc(OC(C)C)c1OC | 1040 nM |
| CC(C)c1cc2c(ccc3nc(N)nc(N)c32)[nH]1 | 40 nM |
| CCOc1ccc2c(NN=Cc3ccc(OC)c(OC)c3)cc(C)nc2c1 | 700 nM |
| CCN(CC)CCN(Cc1ccc(-c2ccc(C#N)cc2)cc1)C(=O)Cn1c(CCc2cccc(F)c2F)nc(=O)c2ccccc21 | 10 nM |
| Cc1ccc(Cn2c(N3CCC(C(=O)NCc4ccccn4)CC3)nc3ccccc32)cc1 | 410 nM |
| CN(CCc1ccccc1)c1ncc(-c2ccccc2CNCc2ccccc2O)cn1 | 1020 nM |
| COc1ccc(N(C)Cc2cnc3nc(N)nc(N)c3n2)cc1 | 280 nM |
| C=CCn1c(Cc2ccccc2)nnc1Sc1ccc(C#N)c([N+](=O)[O-])c1 | 1030 nM |

| SMILES | IC50 |
| --- | --- |
| O=C(NCCCCNCC(Cc1cccc(O)c1)c1ccccc1)c1ccc(NC(=O)c2ccc(Cl)cc2)cc1 (stereo unspecified) | 1040 nM |
| CN(CCN)Cc1ccc(-c2ccc(-c3nc4ccc(F)cc4[nH]3)s2)cc1 | 1070 nM |
| CCCCNC(=O)[C@H](CC1CCCCC1)NC(=O)c1ccc(O)c(-c2ccc(OC)cc2)c1 | 920 nM |
| CC1(C)CCC(C)(C)c2c1ccc(C1CCN(CCCCNC(=O)c3ccc(-c4ccc(C#N)cc4)cc3)CC1)c2OCC(N)=O | 420 nM |
| O=C(Nc1ccc([N+](=O)[O-])cc1Cl)c1cc2ccccc2cc1O | 1010 nM |
| COc1ccc(-c2cnc3ccc(NC4CCC(O)CC4)nn23)cn1 (stereo unspecified) | 710 nM |
| CC(C)(C)NCCN(Cc1ccc(-c2ccc(C(F)(F)F)cc2)cc1)C(=O)Cn1c(SCc2ccc(F)cc2)nc(=O)c2c1CCC2 | 860 nM |
| Oc1ccc2[nH]c(-c3ccc(F)cc3F)nc2c1CN1CCC(O)(c2ccccc2)CC1 | 840 nM |
| O=C(/C=C/c1ccc(Cl)c(Cl)c1)NC1CCN(Cc2ccc(O)cc2)CC1 | 690 nM |
| O=C(NC1CCC(CCN2Cc3cccc(F)c3C2)CC1)c1cccc(-c2cccnc2)c1 (stereo unspecified) | 300 nM |
| CCN(CC)CC(O)CNc1c2ccc([N+](=O)[O-])cc2nc2cc(OC)c(OC)cc12 (stereo unspecified) | 270 nM |
| CC(C)(C)c1ccc(CN(C[C@@H](O)CNS(=O)(=O)c2cc(Cl)cc(Cl)c2)C(C)(C)C)cc1 | 930 nM |
| Cc1cc(NCC(C)C)c2[nH]nc(-c3ccccc3)c2n1 | 740 nM |
| Nc1ncc(-c2ccc3nccc(-c4ccncc4)c3c2)cc1S(=O)(=O)N1CCOCC1 | 870 nM |
| CCCCCCCN1CC[C@@H](CCCc2ccnc3ccc(OC)cc23)[C@@H](CNC)C1 | 210 nM |
| Nc1c2c(nc3ccc(Oc4ccc(Br)cc4Br)cc13)CCCC2 | 860 nM |
| Cn1cncc1C(=O)Nc1cccc(-c2cccc(-c3nc4ccc(C(F)(F)F)cc4[nH]3)c2)c1 | 200 nM |
| C=CCOC(=O)N1CCC(CNCc2cccc(-c3cccc(-c4nc5c(C)cccc5[nH]4)c3)c2)C1 (stereo unspecified) | 110 nM |
| O=C(/C=C/c1ccc(Cl)c(Cl)c1)NCCCCCN1CCN(C(=O)Nc2ccc(OC(F)F)cc2)CC1 | 950 nM |
| O=[N+]([O-])c1cccc(NC(=S)N2CCCN(Cc3ccc(F)cc3F)CC2)c1 | 830 nM |
| Cc1cc(NCc2ccccc2)nc2cc(O)ccc12 | 780 nM |
| NC(=O)C1CCN(Cc2ccc(-c3ccc(-c4nc5ccc(F)cc5[nH]4)cc3)cc2)CC1 | 810 nM |
| COc1ccc2ncc(F)c([C@H](O)CN3CCC(NCc4cc5c(cn4)OCCO5)CC3)c2c1 | 290 nM |
| O=C(/C=C/c1ccc(Cl)c(Cl)c1)NCCCCCN1CC[C@H](NC(=O)/C=C/c2ccccc2)C1 | 1000 nM |
